Patent US9227971B2, “Pyrazolo[1,5-a]pyrimidine compounds as mTOR inhibitors” (Merck Sharp & Dohme Corp., priority 2010, dated 2016)
Where two headings read alike, the source gives them in different places.

Columns and labels:
[1] = test system: phosphorylated 4E-BP1 Thr37/46 (p4E-BP1 Thr37/46), mTORC1 activity, PC3 cells; experiment: mTOR target engagement assay, immunofluorescent cell-based, p4E-BP1 Thr37/46 readout (mTORC1 activity); conditions: Homo sapiens, read-out: p4E-BP1 Thr37/46 IC50
In short: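 Cell-based immunofluorescence in PC3 cells: serially diluted compounds (0.25% DMSO, 5% FBS) applied for ninety minutes at 37° C before fixation and overnight 4° C staining of p4E-BP1 Thr37/46. Untreated DMSO wells set maximal phosphorylation; IC50 obtained by logistic fitting.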

[2] = test system: phosphorylated AKT Ser473 (pAKT S473), mTORC2 activity, PC3 cells; experiment: mTOR target engagement assay, immunofluorescent cell-based, pAKT S473 readout (mTORC2 activity); conditions: Homo sapiens
In short: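 After blocking, cells were stained overnight at 4 °C with anti-pAKT S473 antibody, then a fluorescent secondary; inhibition was read as reduced fluorescence intensity.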

[3] = PC-3, PC3 cells, compound treatment ninety minutes at 37° C.

| Structure (SMILES) | IC50 ([1]; PC-3, Table 3-1, PC3 cells) [nM] | IC50 ([2]; PC-3, Table 3-1, PC3 cells) [nM] | IC50 [1, 3] [nM] | IC50 [2, 3] [nM] | also measured |
| --- | --- | --- | --- | --- | --- |
| Cn1ccc(-c2ccc(-c3cnn4c(N)c(S(C)(=O)=O)c([C@@H]5C[C@H]6CC[C@@H](C5)N6C(=O)c5nnc[nH]5)nc34)cn2)n1 [Compound 3.40, ((1R,3s,5S)-3-(7-amino-3-(6-(1-methyl-1H-pyrazol-3-yl)pyridin-3-yl)-6-(methylsulfonyl)pyrazolo[1,5-a]pyrimidin-5-yl)-8-azabicyclo[3.2.1]octan-8-yl)(4H-1,2,4-triazol-3-yl)methanone] | 1 to 100 | 1 to 100 |  |  |  |
| COc1ccc(-c2ccc(-c3cnn4c(N)c(C5CC5)c([C@@H]5C[C@H]6CC[C@@H](C5)N6C(=O)c5nnc[nH]5)nc34)cn2)c(F)c1F [Compound 4.10, ((1R,3a,5S)-3-(7-amino-6-cyclopropyl-3-(6-(2,3-difluoro-4-methoxyphenyl)pyridin-3-yl)pyrazolo[1,5-a]pyrimidin-5-yl)-8-azabicyclo[3.2.1]octan-8-yl)(4H-1,2,4-triazol-3-yl)methanone] |  |  | 1 to 100 | 1 to 100 |  |
| CS(=O)(=O)c1c([C@@H]2C[C@H]3CC[C@@H](C2)N3C(=O)c2cc3cccnc3[nH]2)nc2c(-c3ccc(-c4ccccc4)nc3)cnn2c1N [Compound 3.77, ((1R,3s,5S)-3-(7-amino-6-(methylsulfonyl)-3-(6-phenylpyridin-3-yl)pyrazolo[1,5-a]pyrimidin-5-yl)-8-azabicyclo[3.2.1]octan-8-yl)(1H-pyrrolo[2,3-b]pyridin-2-yl)methanone] | > 10000 | 1000 to 10000 |  |  |  |
| Cc1cnc(-c2ccc(-c3cnn4c(N)c(S(C)(=O)=O)c([C@@H]5C[C@H]6CC[C@@H](C5)N6C(=O)C(N)C(F)(F)F)nc34)cn2)s1 (stereo partly drawn) [Compound 3.188, 2-amino-1-((1R,3s,5S)-3-(7-amino-6-(methylsulfonyl)-3-(6-(5-methylthiazol-2-yl)pyridin-3-yl)pyrazolo[1,5-a]pyrimidin-5-yl)-8-azabicyclo[3.2.1]octan-8-yl)-3,3,3-trifluoropropan-1-one] | 1000 to 10000 | 1000 to 10000 |  |  |  |
| COCc1cc(-c2ccc(-c3cnn4c(N)c(C(C)=O)c([C@@H]5C[C@H]6CC[C@@H](C5)N6C(=O)CO)nc34)cn2)ccc1OC [Compound 1.1.44, 1-((1R,3s,5S)-3-(6-acetyl-7-amino-3-(6-(4-methoxy-3-(methoxymethyl)phenyl)pyridin-3-yl)pyrazolo[1,5-a]pyrimidin-5-yl)-8-azabicyclo[3.2.1]octan-8-yl)-2-hydroxyethanone] |  |  | 100 to 1000 | 1 to 100 |  |
| CC(=O)c1c([C@@H]2C[C@H]3CC[C@@H](C2)N3C(=O)c2nnc[nH]2)nc2c(-c3ccc(-c4cn(C)cn4)nc3)cnn2c1N [Compound 1.1.108, 1-(5-((1R,3s,5S)-8-(4H-1,2,4-triazole-3-carbonyl)-8-azabicyclo[3.2.1]octan-3-yl)-7-amino-3-(6-(1-methyl-1H-imidazol-4-yl)pyridin-3-yl)pyrazolo[1,5-a]pyrimidin-6-yl)ethanone] |  |  | 1000 to 10000 | 1000 to 10000 |  |
| CS(=O)(=O)c1c([C@H]2CC3CC[C@H](C2)N3C(=O)c2cn[nH]n2)nc2c(-c3ccc(-c4ccccc4F)nc3)cnn2c1N [Compound 3.170, ((1R,3s,5S)-3-(7-amino-3-(6-(2-fluorophenyl)pyridin-3-yl)-6-(methylsulfonyl)pyrazolo[1,5-a]pyrimidin-5-yl)-8-azabicyclo[3.2.1]octan-8-yl)(2H-1,2,3-triazol-4-yl)methanone] | 100 to 1000 | 100 to 1000 |  |  |  |
| CNc1c(S(C)(=O)=O)c([C@@H]2C[C@H]3CC[C@@H](C2)N3C(=O)c2nnc[nH]2)nc2c(-c3ccc(-c4ccccc4)nc3)cnn12 [Compound 8.41, ((1R,3s,5S)-3-(7-(methylamino)-6-(methylsulfonyl)-3-(6-phenylpyridin-3-yl)pyrazolo[1,5-a]pyrimidin-5-yl)-8-azabicyclo[3.2.1]octan-8-yl)(4H-1,2,4-triazol-3-yl)methanone] |  |  |  |  | IC50 ([1]; PC-3, PC3 cells): 100 to 1000 nM; IC50 ([2]; PC-3, PC3 cells): 1 to 100 nM |
| Cn1ccc(-c2ccc(-c3cnn4c(N)c(C5CC5)c([C@@H]5C[C@H]6CC[C@@H](C5)N6C(=O)CO)nc34)cn2)n1 [Compound 4.18, 1-((1R,3s,5S)-3-(7-amino-6-cyclopropyl-3-(6-(1-methyl-1H-pyrazol-3-yl)pyridin-3-yl)pyrazolo[1,5-a]pyrimidin-5-yl)-8-azabicyclo[3.2.1]octan-8-yl)-2-hydroxyethanone] |  |  | 1 to 100 | 1 to 100 |  |
| CC(=O)c1c([C@@H]2C[C@H]3CC[C@@H](C2)N3C(N)=O)nc2c(-c3ccc(-c4cnn(C)c4)nc3)cnn2c1N [Compound 1.1.175, (1R,3s,5S)-3-(6-acetyl-7-amino-3-(6-(1-methyl-1H-pyrazolo-4-yl)pyridin-3-yl)pyrazolo[1,5-a]pyrimidin-5-yl)-8-azabicyclo[3.2.1]octane-8-carboxamide] |  |  | 100 to 1000 | 1 to 100 |  |
| CC(=O)c1c([C@@H]2C[C@H]3CC[C@@H](C2)N3C(=O)c2n[nH]c(N(C)C)n2)nc2c(-c3ccc(-c4ccccc4)nc3)cnn2c1N [Compound 1.1.139, 1-(7-amino-5-((1R,3s,5S)-8-(5-(dimethylamino)-1H-1,2,4-triazole-3-carbonyl)-8-azabicyclo[3.2.1]octan-3-yl)-3-(6-phenylpyridin-3-yl)pyrazolo[1,5-a]pyrimidin-6-yl)ethanone] |  |  | 1000 to 10000 | 1000 to 10000 |  |
| CC(=O)c1c([C@@H]2C[C@H]3CC[C@@H](C2)N3C(=O)CO)nc2c(-c3ccc(-c4ncc(C)[nH]4)c(F)c3)cnn2c1N [Compound 6.38, 1-((1R,3s,5S)-3-(6-acetyl-7-amino-3-(3-fluoro-4-(5-methyl-1H-imidazol-2-yl)phenyl)pyrazolo[1,5-a]pyrimidin-5-yl)-8-azabicyclo[3.2.1]octan-8-yl)-2-hydroxyethanone] |  |  |  |  | IC50 ([1]; PC-3, Table 6-1, PC3 cells): 100 to 1000 nM; IC50 ([2]; PC-3, Table 6-1, PC3 cells): 1 to 100 nM |
| CCCS(=O)(=O)c1c([C@@H]2C[C@H]3CC[C@@H](C2)N3C(=O)c2nnc[nH]2)nc2c(-c3ccc(-c4ccccc4)nc3)cnn2c1N [Compound 3.162, ((1R,3s,5S)-3-(7-amino-3-(6-phenylpyridin-3-yl)-6-(propylsulfonyl)pyrazolo[1,5-a]pyrimidin-5-yl)-8-azabicyclo[3.2.1]octan-8-yl)(4H-1,2,4-triazol-3-yl)methanone] | 100 to 1000 | 100 to 1000 |  |  |  |
| Cn1cc(-c2ccc(-c3cnn4c(N)c(S(C)(=O)=O)c([C@@H]5C[C@H]6CC[C@@H](C5)N6C(=O)c5nnc[nH]5)nc34)cn2)cn1 [Compound 3.106, ((1R,3s,5S)-3-(7-amino-3-(6-(1-methyl-1H-pyrazol-4-yl)pyridin-3-yl)-6-(methylsulfonyl)pyrazolo[1,5-a]pyrimidin-5-yl)-8-azabicyclo[3.2.1]octan-8-yl)(4H-1,2,4-triazol-3-yl)methanone] | 1 to 100 | 1 to 100 |  |  |  |
| CS(=O)(=O)c1c([C@@H]2C[C@H]3CC[C@@H](C2)N3/C(N)=N/C#N)nc2c(-c3ccc(-c4ccccc4)nc3)cnn2c1N [Compound 8.87, (1R,3s,5S,E)-3-(7-amino-6-(methylsulfonyl)-3-(6-phenylpyridin-3-yl)pyrazolo[1,5-a]pyrimidin-5-yl)-N′-cyano-8-azabicyclo[3.2.1]octane-8-carboximidamide] |  |  |  |  | IC50 ([1]; PC-3, PC3 cells): 100 to 1000 nM; IC50 ([2]; PC-3, PC3 cells): 1 to 100 nM |
| COc1ccc2ncc(-c3cnn4c(N)c(C(C)=O)c([C@@H]5C[C@H]6CC[C@@H](C5)N6C(=O)c5nnc[nH]5)nc34)cc2c1 [Compound 1.1.125, 1-(5-((1R,3s,5S)-8-(4H-1,2,4-triazole-3-carbonyl)-8-azabicyclo[3.2.1]octan-3-yl)-7-amino-3-(6-methoxyquinolin-3-yl)pyrazolo[1,5-a]pyrimidin-6-yl)ethanone] |  |  | 100 to 1000 | 1000 to 10000 |  |
| CS(=O)(=O)c1c([C@@H]2C[C@H]3CC[C@@H](C2)N3C(N)=O)nc2c(-c3ccc(-c4ccc(F)cc4F)nc3)cnn2c1N [Compound 3.125, (1R,3s,5S)-3-(7-amino-3-(6-(2,4-difluorophenyl)pyridin-3-yl)-6-(methylsulfonyl)pyrazolo[1,5-a]pyrimidin-5-yl)-8-azabicyclo[3.2.1]octane-8-carboxamide] | 100 to 1000 | 1 to 100 |  |  |  |
| CN1CCN(c2nnc(C(=O)N3C4CCC3CC(c3nc5c(-c6ccc(-c7ccccc7)nc6)cnn5c(N)c3C3CC3)C4)[nH]2)CC1 [Compound 8.102, ((1R,3s,5S)-3-(7-amino-6-cyclopropyl-3-(6-phenylpyridin-3-yl)pyrazolo[1,5-a]pyrimidin-5-yl)-8-azabicyclo[3.2.1]octan-8-yl)(5-(4-methylpiperazin-1-yl)-4H-1,2,4-triazol-3-yl)methanone] |  |  |  |  | IC50 ([1]; PC-3, PC3 cells): 1000 to 10000 nM; IC50 ([2]; PC-3, PC3 cells): 1000 to 10000 nM |
| Nc1c(C2CC2)c(C2CC3CCC(C2)N3C(=O)c2nnc(N3CCOCC3)[nH]2)nc2c(-c3ccc(-c4ccccc4)nc3)cnn12 [Compound 8.105, ((1R,3s,5S)-3-(7-amino-6-cyclopropyl-3-(6-phenylpyridin-3-yl)pyrazolo[1,5-a]pyrimidin-5-yl)-8-azabicyclo[3.2.1]octan-8-yl)(5-morpholino-4H-1,2,4-triazol-3-yl)methanone] |  |  |  |  | IC50 ([1]; PC-3, PC3 cells): 1000 to 10000 nM; IC50 ([2]; PC-3, PC3 cells): 1000 to 10000 nM |
| Nc1cc([C@@H]2C[C@H]3CC[C@@H](C2)N3C(=O)c2nnc[nH]2)nc2c(-c3ccc(-c4ccc(C(F)(F)F)cc4F)nc3)cnn12 [Compound 2.17, ((1R,3s,5S)-3-(7-amino-3-(6-(2-fluoro-4-(trifluoromethyl)phenyl)pyridin-3-yl)pyrazolo[1,5-a]pyrimidin-5-yl)-8-azabicyclo[3.2.1]octan-8-yl)(4H-1,2,4-triazol-3-yl)methanone] |  |  | 1000 to 10000 | 1000 to 10000 |  |
